These results are taken from patent US11953435B2, “Zinc-responsive fluorophores” (Northwestern University, priority 2019, dated 2024).

In series [1] the test system is MII egg. The note with it: previously reported; cited from earlier work.
Series [2] is described as follows: Stability of ZincBY-4 over 12 h by fluorescence intensity. In kind it is physicochemical. The note with it: for retention of fluorescence intensity after 12 hours: 10 mM glutathione (GSH); for fluorescence intensity after 12 hours: absence of GSH. As for the experimental part:
(§1) Aqueous solutions were prepared by using de-ionized water with resistivity […], obtained using a Milli-Q water purification system. In order to properly compare the photophysical properties of ZincBY-2, ZincBY-3, and ZincBY-4 to ZincBY-1, the photophysical properties of ZincBY-1 we remeasured. […] Stock solutions of ZincBY-1, ZincBY-2, ZincBY-3, and ZincBY-4 were prepared at concentrations of 5 mM and stored at −20° C. in aliquots that were used immediately after thawing for each experiment. Unless otherwise stated, all spectroscopic methods were conducted in aqueous buffer containing 50 mM HEPES (pH 7.2) and 0.1 M KNO3. UV-visible spectra were acquired on a PerkinElmer Lambda 650 UV/Vis spectrophotometer using quartz cuvettes from Starna (1 cm path length, 10 cm path length used in extinction coefficient and quantum yield determination). Fluorescence spectra were acquired using a PerkinElmer LS 55 fluorescence spectrophotometer. For measurements containing zinc, 99.0% ZnNO3 hexahydrate (final concentration 5 μM) was used. For experiments analyzing apo probes, N,N,N′,N′-Tetrakis(2-pyridylmethyl)ethylenediamine (TPEN) (final concentration 5 μM) was added to solution. Quantum Yield and Extinction Coefficient Determination. Quantum yields for apo and holo ZincBY-1, ZincBY-2, ZincBY-3, and ZincBY-4 were determined by plotting absorbance vs. fluorescence intensity of solutions containing ZincBY-1, ZincBY-2, ZincBY-3, or ZincBY-4 at probe concentrations ranging from 50-250 nM. […] Fluorescein dissolved in 0.1 N NaOH was used as the quantum yield standard, using a literature-determined quantum yield of 0.95.^3 For all fluorophore solutions, fluorescence excitation was set at 490 nm and fluorescence emission was integrated from 510 nm to 650 nm. […] Fluorescence spectra were recorded using zinc probes (ZincBY-1, ZincBY-2, ZincBY-3, or ZincBY-4; 200 nM) and ZnSO4 (various concentrations). […] Free Zn^2+ was calculated according to a previously reported method (Ref. B4; incorporated by reference in its entirety). […] The fluorescence spectra of zinc probes (ZincBY-2, ZincBY-3, or ZincBY-4; 200 nM) wasere measured at various pH values (4.5-11). […] The fluorescence spectra of zinc probes (ZincBY-2, ZincBY-3, or ZincBY-4; 200 nM) were measured in the presence an excess of metal ion including 1 mM KNO3, 1 mM NaNO3, 1 mM CaSO4, 1 mM MgSO4, 15 μM MnSO4, 15 μM (NH4)2Fe(SO4)2, 15 μM NH4Fe(SO4)2, 15 μM CoSO4, 15 μM NiSO4, 15 μM CuSO4, 15 μM [Cu(CH3CN)4]PF6, 15 μM CdSO4, 15 μM Hg(NO3)2, 15 μM Pb(NO3)2, or 15 μM ZnSO4. The fluorescence spectra were compared to that of ZincBY-2 (200 nM), ZincBY-3 (200 nM), or ZincBY-4 (200 nM) in the presence of 10 μM TPEN. […] A log P value for each probe was determined by agitating nanomolar solutions of each probe in a 1:1 mixture of HEPES buffer and 1-octanol. […]

Series [3] is described as follows: Photophysical properties in solvents of varied dielectric constants (water/acetonitrile). The series is classed as physicochemical. On the procedure: as §1

On to `COc1ccc2n1[B-](F)(F)[N+]1=C(N(CCN(Cc3ccccn3)Cc3ccccn3)Cc3ccccn3)C=CC1=C2c1c(C)cc(C)cc1C` [ZincBY-1, reference compound], for which the “working concentrations lower than those employed with other probes” value in series [1] is 20-200 fold.

For `CC(=O)NCCOc1ccc2n1[B-](F)(F)[N+]1=C(N(CCN(Cc3ccccn3)Cc3ccccn3)Cc3ccccn3)C=CC1=C2c1c(C)cc(C)cc1C` [ZincBY-4, N-(2-((7-((2-(bis(pyridin-2-ylmethyl)amino)ethyl)(pyridin-2-ylmethyl)amino)-5,5-difluoro-10-mesityl-5H-5λ4,6λ4-dipyrrolo[1,2-c:2′,1′-f][1,3,2]diazaborinin-3-yl)oxy)ethyl)acetamide], in series [2] (apo), the “retention of fluorescence intensity after 12 hours” value worked out at 40% and the “fluorescence intensity after 12 hours” value turned out to be 7%. Besides, in series [2] (holo), the “retention of fluorescence intensity after 12 hours” value was determined as 97% and the “fluorescence intensity after 12 hours” value is on record as 83%. Also, in series [3] (apo), the “emission maximum wavelength as the dielectric constant decreases” value is “does not change” and the “fluorescence intensity as the dielectric constant changes” value is “does change in response to dielectric constant”. In series [3] (holo), the “emission maximum wavelength as the dielectric constant decreases” value worked out at 575 nm and the “fluorescence intensity as the dielectric constant changes” value is “does not change as the dielectric constant changes”.
